Assay results reported in ChEMBL document CHEMBL1126493, “Conformationally constrained analogues of diacylglycerol (DAG). 4. Interaction of -alkylidene--lactones with protein kinase C (PK-C)” (Bioorg Med Chem Lett, 1993).

Legend:
[1] = molecular target: Protein kinase C, PKC; classical/novel; experiment: Inhibition of [20-3H]phorbol-12,13-dibutyrate (PDBU) binding to protein kinase C; assay type: protein assay
[2] = molecular target: Protein kinase C alpha type (Homo sapiens, UniProt P17252); experiment: Inhibition of [20-3H]phorbol-12,13-dibutyrate (PDBU) binding to protein kinase C (alpha)

Ki [1] [nM]	Ki [2] [nM]	Compound
600	500	CCCCCCCCCCCCCC[C@H]1C(=O)O[C@@H](CO)[C@@H]1OC(C)=O
–	600	CCCCCCCCCCCCCC[C@@H]1C(=O)O[C@@H](CO)[C@@H]1OC(C)=O
